Data as given in paper PMC7366380, “Discovery of a Potent and Selective Covalent Inhibitor and Activity-Based Probe for the Deubiquitylating Enzyme UCHL1, with Antifibrotic Activity” (Journal of the American Chemical Society, 2020).
Values joined by “and” are separate entries in the source; they are usually repeats but may differ in a detail not shown here. Equal entries are not always repeated.

What was measured:
Test in all cases: In-cell proteome-wide competitive ABPP, HEK293: other DUBs and proteins
[1] = biological target: T1, DUBs and other proteins in HEK293 cells (Homo sapiens, UniProt P40818); settings: for Log2 reporter intensity values: USP8: competition with ABP 2, DMSO substract (FC), replicates A-B; for Log2 reporter intensity values: USP8, DMSO subtracted
T1 sequence (P40818 1-1118): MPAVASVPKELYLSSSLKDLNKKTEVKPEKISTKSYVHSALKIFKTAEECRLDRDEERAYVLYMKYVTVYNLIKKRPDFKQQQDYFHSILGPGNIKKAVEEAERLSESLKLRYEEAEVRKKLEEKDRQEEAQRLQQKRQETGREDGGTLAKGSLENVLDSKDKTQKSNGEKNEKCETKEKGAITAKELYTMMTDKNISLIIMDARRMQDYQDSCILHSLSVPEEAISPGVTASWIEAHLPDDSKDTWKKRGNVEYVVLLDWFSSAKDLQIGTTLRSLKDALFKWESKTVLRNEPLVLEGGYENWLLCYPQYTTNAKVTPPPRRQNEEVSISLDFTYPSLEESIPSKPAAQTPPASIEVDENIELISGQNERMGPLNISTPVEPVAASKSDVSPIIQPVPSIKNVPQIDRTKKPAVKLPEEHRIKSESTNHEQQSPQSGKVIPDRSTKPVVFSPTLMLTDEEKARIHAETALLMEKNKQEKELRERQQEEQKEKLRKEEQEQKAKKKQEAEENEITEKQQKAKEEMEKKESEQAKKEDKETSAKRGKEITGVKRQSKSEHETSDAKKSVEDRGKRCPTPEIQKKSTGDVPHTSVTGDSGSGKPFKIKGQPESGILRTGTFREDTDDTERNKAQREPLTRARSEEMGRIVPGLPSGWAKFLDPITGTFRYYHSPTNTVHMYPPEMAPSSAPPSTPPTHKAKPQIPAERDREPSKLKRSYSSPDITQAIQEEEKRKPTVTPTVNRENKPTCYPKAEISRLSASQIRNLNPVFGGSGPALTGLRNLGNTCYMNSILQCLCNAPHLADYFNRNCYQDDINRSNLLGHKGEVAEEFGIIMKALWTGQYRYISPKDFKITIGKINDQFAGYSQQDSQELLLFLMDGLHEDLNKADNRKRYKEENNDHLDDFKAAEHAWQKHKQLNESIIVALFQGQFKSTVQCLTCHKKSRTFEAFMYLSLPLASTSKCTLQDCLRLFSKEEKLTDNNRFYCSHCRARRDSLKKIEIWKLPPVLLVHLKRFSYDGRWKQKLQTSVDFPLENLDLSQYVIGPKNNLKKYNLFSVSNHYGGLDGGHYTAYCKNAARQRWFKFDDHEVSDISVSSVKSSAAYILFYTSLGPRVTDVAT

[2] = biological target: DUBs and other proteins in HEK293 cells (Homo sapiens, UniProt P54578); settings: replicates A-C; for Log2 reporter intensity values: USP14: competition with ABP 2, DMSO substract (FC); for Log2 reporter intensity values: USP14, DMSO subtracted
Sequence of DUBs and other proteins in HEK293 cells (Homo sapiens, UniProt P54578) (P54578 whole entry): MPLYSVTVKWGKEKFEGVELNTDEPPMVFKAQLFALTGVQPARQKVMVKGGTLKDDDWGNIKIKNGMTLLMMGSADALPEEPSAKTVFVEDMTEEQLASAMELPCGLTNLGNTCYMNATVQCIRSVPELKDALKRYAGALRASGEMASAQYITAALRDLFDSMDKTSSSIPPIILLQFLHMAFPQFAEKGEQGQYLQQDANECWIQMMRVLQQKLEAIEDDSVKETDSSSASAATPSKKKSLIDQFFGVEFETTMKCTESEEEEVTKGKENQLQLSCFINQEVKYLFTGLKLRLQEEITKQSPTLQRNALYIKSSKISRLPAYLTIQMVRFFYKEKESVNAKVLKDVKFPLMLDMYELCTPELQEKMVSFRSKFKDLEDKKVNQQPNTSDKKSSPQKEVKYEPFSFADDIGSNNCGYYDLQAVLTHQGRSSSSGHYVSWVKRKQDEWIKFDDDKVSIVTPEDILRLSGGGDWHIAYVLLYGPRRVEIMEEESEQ

[3] = biological target: DUBs and other proteins in HEK293 cells (Homo sapiens, UniProt Q6P2Q9); settings: replicates A-C; for Log2 reporter intensity values: PRPF8: competition with ABP 2, DMSO substract (FC); for Log2 reporter intensity values: PRPF8, DMSO subtracted
[4] = biological target: T2, DUBs and other proteins in HEK293 cells (Homo sapiens, UniProt Q86UV5); settings: for Log2 reporter intensity values: USP48: competition with ABP 2, DMSO substract (FC), replicates A-B; for Log2 reporter intensity values: USP48, DMSO subtracted
T2 sequence (Q86UV5 1-1035): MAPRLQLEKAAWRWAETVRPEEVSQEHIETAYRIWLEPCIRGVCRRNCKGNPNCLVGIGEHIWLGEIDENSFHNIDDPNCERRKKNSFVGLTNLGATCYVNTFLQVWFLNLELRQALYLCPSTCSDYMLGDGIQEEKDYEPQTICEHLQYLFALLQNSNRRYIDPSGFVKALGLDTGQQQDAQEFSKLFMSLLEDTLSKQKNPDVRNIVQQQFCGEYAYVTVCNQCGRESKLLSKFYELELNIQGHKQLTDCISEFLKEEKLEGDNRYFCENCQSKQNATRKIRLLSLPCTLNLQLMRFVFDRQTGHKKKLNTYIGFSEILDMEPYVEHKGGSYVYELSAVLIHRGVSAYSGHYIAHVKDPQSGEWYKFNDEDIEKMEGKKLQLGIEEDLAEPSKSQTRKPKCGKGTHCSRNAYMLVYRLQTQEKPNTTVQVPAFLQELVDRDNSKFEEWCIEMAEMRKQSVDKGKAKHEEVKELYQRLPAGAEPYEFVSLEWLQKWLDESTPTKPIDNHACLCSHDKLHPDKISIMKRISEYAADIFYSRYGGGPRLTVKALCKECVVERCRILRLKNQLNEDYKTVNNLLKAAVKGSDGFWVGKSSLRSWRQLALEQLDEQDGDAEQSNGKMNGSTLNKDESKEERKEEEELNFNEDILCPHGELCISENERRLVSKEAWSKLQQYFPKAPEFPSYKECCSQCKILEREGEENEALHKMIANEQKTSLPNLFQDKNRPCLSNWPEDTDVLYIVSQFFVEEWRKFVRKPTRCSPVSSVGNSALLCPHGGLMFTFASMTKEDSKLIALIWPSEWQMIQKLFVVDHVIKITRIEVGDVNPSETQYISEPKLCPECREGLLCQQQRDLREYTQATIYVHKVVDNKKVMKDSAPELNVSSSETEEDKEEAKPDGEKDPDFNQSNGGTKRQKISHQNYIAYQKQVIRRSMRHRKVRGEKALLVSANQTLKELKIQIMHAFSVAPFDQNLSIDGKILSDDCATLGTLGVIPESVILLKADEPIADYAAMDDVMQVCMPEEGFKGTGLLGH

[5] = biological target: DUBs and other proteins in HEK293 cells (Homo sapiens, UniProt Q92905); settings: for Log2 reporter intensity values, COPS5: TMT replicates; for Log2 reporter intensity values: COPS5: competition with ABP 2, DMSO substract (FC); for Log2 reporter intensity values: COPS5 / Log2 reporter intensity values: replicates A-C; for Log2 t-test Difference / Log2 reporter intensity values: COPS5
Sequence of DUBs and other proteins in HEK293 cells (Homo sapiens, UniProt Q92905) (Q92905 whole entry): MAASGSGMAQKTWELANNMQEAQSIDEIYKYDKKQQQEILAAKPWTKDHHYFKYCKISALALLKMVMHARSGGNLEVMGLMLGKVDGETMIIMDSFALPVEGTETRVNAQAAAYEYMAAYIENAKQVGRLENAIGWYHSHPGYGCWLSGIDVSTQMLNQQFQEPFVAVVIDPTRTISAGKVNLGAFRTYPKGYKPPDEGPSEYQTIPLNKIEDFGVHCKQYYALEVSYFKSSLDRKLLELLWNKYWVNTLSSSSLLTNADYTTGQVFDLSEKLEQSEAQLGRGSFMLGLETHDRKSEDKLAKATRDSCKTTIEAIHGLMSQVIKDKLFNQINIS

## N#CN1CCC[C@H]1C(=O)N1CCc2c(-c3c[nH]c4ncccc34)cccc21 [Compound 1]
[1]; 1 at 1 μM
  Log2 reporter intensity values: USP8: 0.9851 and 0.9804
[1]; 1 at 4 μM
  Log2 reporter intensity values: USP8: 1.1 and 1.102
[1]; 1_1 μM, replicates A-B (C NaN)
  Log2 reporter intensity values: -0.01738 and -0.02201
[1]; 1_4 μM, replicates A-B (C NaN)
  Log2 reporter intensity values: 0.09749 and 0.0991
[1]; 1 at 1 μM, replicates A-C
  Log2 reporter intensity values: -0.0217 and -0.0285
[1]; 1 at 4 μM, replicates A-C
  Log2 reporter intensity values: 0.1374 and 0.1395
[2]; 1 at 1 μM
  Log2 reporter intensity values: USP14: 1.068 and 1.073 and 1.08
  Log2 reporter intensity values: 0.09459 and 0.102 and 0.1108
[2]; 1 at 4 μM
  Log2 reporter intensity values: USP14: 1.026 and 1.014 and 1.052
  Log2 reporter intensity values: 0.03759 and 0.02017 and 0.07309
[2]; 1_1 μM
  Log2 reporter intensity values: 0.06753 and 0.073 and 0.0796
[2]; 1_4 μM
  Log2 reporter intensity values: 0.02617 and 0.01386 and 0.05174
[3]; 1 at 1 μM
  Log2 reporter intensity values: PRPF8: 0.961 and 0.941 and 0.9412
  Log2 reporter intensity values: -0.05742 and -0.08778 and -0.08738
[3]; 1 at 4 μM
  Log2 reporter intensity values: PRPF8: 0.9254 and 0.9448 and 0.8776
  Log2 reporter intensity values: -0.1118 and -0.08196 and -0.1883
[3]; 1_1 μM
  Log2 reporter intensity values: -0.03926 and -0.05927 and -0.05901
[3]; 1_4 μM
  Log2 reporter intensity values: -0.07482 and -0.05547 and -0.1226
[4]; 1 at 1 μM
  Log2 reporter intensity values: USP48: 1.114 and 0.9292
[4]; 1 at 4 μM
  Log2 reporter intensity values: USP48: 1.018 and 0.949
[4]; 1_1 μM, replicates A-B (C NaN)
  Log2 reporter intensity values: 0.113 and -0.07208
[4]; 1_4 μM, replicates A-B (C NaN)
  Log2 reporter intensity values: 0.01672 and -0.0523
[4]; 1 at 1 μM, replicates A-C
  Log2 reporter intensity values: 0.1561 and -0.1059
[4]; 1 at 4 μM, replicates A-C
  Log2 reporter intensity values: 0.02574 and -0.07554
[5]; 1 μM 1 (60 min) + 20 nM ABP 2 (10 min), All values
  Log2 reporter intensity values, COPS5: -0.01371 and -0.03292 and 0.07504
[5]; 1 μM 1 (60 min) + 20 nM ABP 2 (10 min), DMSO subtracted
  Log2 reporter intensity values, COPS5: 0.04441 and 0.02519 and 0.1332
[5]; 4 μM 1 (60 min) + 20 nM ABP 2 (10 min), All values
  Log2 reporter intensity values, COPS5: 0.02465 and -0.01344 and 0.1212
[5]; 4 μM 1 (60 min) + 20 nM ABP 2 (10 min), DMSO subtracted
  Log2 reporter intensity values, COPS5: 0.08277 and 0.04467 and 0.1793
[5]; 1 at 1 μM
  Log2 reporter intensity values: COPS5: 1.031 and 1.018 and 1.097
[5]; 1 at 4 μM
  Log2 reporter intensity values: COPS5: 1.059 and 1.031 and 1.132
[5]; 1 - 1 μM
  Log2 t-test Difference: -0.09474
[5]; 1 - 4 μM
  Log2 t-test Difference: -0.06006
[5]; 1_1 μM, DMSO subtracted
  Log2 reporter intensity values: 0.03118 and 0.01753 and 0.09661
[5]; 1_4 μM, DMSO subtracted
  Log2 reporter intensity values: 0.05896 and 0.03137 and 0.1323
[5]; 1 at 1 μM, DMSO subtracted
  Log2 reporter intensity values: 0.04441 and 0.02519 and 0.1332
[5]; 1 at 4 μM, DMSO subtracted
  Log2 reporter intensity values: 0.08277 and 0.04467 and 0.1793
